Values after ≈ are worked out from the molar mass of the structure shown.

This is an account of results in US7342011B2, “Rifamycin analogs and uses thereof” (priority 2003, dated 2008).

For the experiment, the system named is E. coli. Briefly: MIC assay, E. coli. It is filed as cell-based.
For `COC1C=COC2(C)Oc3c(C)c(O)c4c(=O)c(c5oc6cc(N7CC8C(C7)C8NC(=O)OCC[Si](C)(C)C)cc(O)c6nc-5c4c3C2=O)NC(=O)C(C)=CC=CC(C)C(O)C(C)C(O)C(C)C(OC(C)=O)C1C` [Compound 2, 3′-hydroxy-5′-[6-(2-trimethylsilyl)ethylcarbamyl-(1R,5S)-3-azabicyclo[3.1.0]hex-3-yl]benzoxazinorifamycin], the “MIC (μg/mL) E. coli” value was more than 8 µg/mL.

In the case of `COC1C=COC2(C)Oc3c(C)c(O)c4c(=O)c(c5oc6cc(N7CCC(NC(C)=O)CC7)cc(O)c6nc-5c4c3C2=O)NC(=O)C(C)=CC=CC(C)C(O)C(C)C(O)C(C)C(O)C1C` (stereo not drawn) [Compound 43, 25-O-deacetyl-3′-hydroxy-5′-[4-acetamide-1-piperidinyl]benzoxazinorifamycin], the “MIC (μg/mL) E. coli” value was more than 8 µg/mL.

As to `CCCS(=O)(=O)NC1CCN(c2cc(O)c3nc4c5c6c7c(C)c(O)c5c(=O)c(c-4oc3c2)NC(=O)C(C)=CC=CC(C)C(O)C(C)C(O)C(C)C(O)C(C)C(OC)C=COC(C)(O7)C6=O)CC1` (stereo not drawn) [Compound 67], the “MIC (μg/mL) E. coli” value is more than 8 µg/mL.

As to `COC1C=COC2(C)Oc3c(C)c(O)c4c(=O)c(c5oc6cc(N7CCC(CNC(C)=O)CC7)cc(O)c6nc-5c4c3C2=O)NC(=O)C(C)=CC=CC(C)C(O)C(C)C(O)C(C)C(O)C1C` (stereo not drawn) [Compound 56, 25-O-deacetyl-3′-hydroxy-5′-[4-acetylaminomethyl-1-piperidinyl]benzoxazinorifamycin], the “MIC (μg/mL) E. coli” value was 8 µg/mL (≈ 8.76 µM).

Take `COC1C=COC2(C)Oc3c(C)c(O)c4c(=O)c(c5oc6cc(N7CCC(NS(=O)(=O)C(F)(F)F)CC7)cc(O)c6nc-5c4c3C2=O)NC(=O)C(C)=CC=CC(C)C(O)C(C)C(O)C(C)C(O)C1C` (stereo not drawn) [Compound 38]: the “MIC (μg/mL) E. coli” value was more than 8 µg/mL.

Take `CO[C@H]1/C=C/O[C@@]2(C)Oc3c(C)c(O)c4c(=O)c(c5oc6cc(N7CC8CCC(C7)N8)cc(O)c6nc-5c4c3C2=O)NC(=O)/C(C)=C\C=C\[C@H](C)[C@H](O)[C@@H](C)[C@@H](O)[C@@H](C)[C@H](OC(C)=O)[C@@H]1C` [Compound 10, 3′-hydroxy-5′-(3,8-diazabicyclo[3.2.1]octan-3-yl)benzoxazinorifamycin]: the “MIC (μg/mL) E. coli” value is more than 8 µg/mL.

Take `CO[C@H]1/C=C/O[C@@]2(C)Oc3c(C)c(O)c4c(=O)c(c5oc6cc(N7C[C@H]8CCCN[C@H]8C7)cc(O)c6nc-5c4c3C2=O)NC(=O)/C(C)=C\C=C\[C@H](C)[C@H](O)[C@@H](C)[C@@H](O)[C@@H](C)[C@H](OC(C)=O)[C@@H]1C` [Compound 12, 3′-hydroxy-5′-[(4aR,7aR)-octahydro-6H-pyrrolo[3,4-b]pyridin-6-yl]benzoxazinorifamycin]: the “MIC (μg/mL) E. coli” value was 8 µg/mL (≈ 8.65 µM).

As to `CO[C@H]1/C=C/O[C@@]2(C)Oc3c(C)c(O)c4c(=O)c(c5oc6cc(N7CC8CCC(C7)N8)cc(O)c6nc-5c4c3C2=O)NC(=O)/C(C)=C\C=C\[C@H](C)[C@H](O)[C@@H](C)[C@@H](O)[C@@H](C)[C@H](O)[C@@H]1C` [Compound 16, 25-O-deacetyl-3′-hydroxy-5′-(3,8-diazabicyclo[3.2.1]octan-3-yl)benzoxazinorifamycin], the “MIC (μg/mL) E. coli” value was found to be 4 µg/mL (≈ 4.6 µM).

Turning to `COC1C=COC2(C)Oc3c(C)c(O)c4c(=O)c(c5oc6cc(N7CC8C(N)C8C7)cc(O)c6nc-5c4c3C2=O)NC(=O)C(C)=CC=CC(C)C(O)C(C)C(O)C(C)C(O)C1C` [Compound 20, 25-O-deacetyl-3′-hydroxy-5′-[6-amino-(1R,5S)-3-azabicyclo[3.1.0]hex-3-yl]benzoxazinorifamycin], the “MIC (μg/mL) E. coli” value is more than 8 µg/mL.

In the case of `COC1C=COC2(C)Oc3c(C)c(O)c4c(=O)c(c5oc6cc(N7CCC(c8ccccc8)CC7)cc(O)c6nc-5c4c3C2=O)NC(=O)C(C)=CC=CC(C)C(O)C(C)C(O)C(C)C(O)C1C` (stereo not drawn) [Compound 62, 25-O-deacetyl-3′-hydroxy-5′-[4-phenyl-1-piperidinyl]benzoxazinorifamycin], the “MIC (μg/mL) E. coli” value was more than 8 µg/mL.

As for `CO[C@H]1/C=C/O[C@@]2(C)Oc3c(C)c(O)c4c(=O)c(c5oc6cc(N7CCC(NC(=O)OC(C)C)CC7)cc(O)c6nc-5c4c3C2=O)NC(=O)/C(C)=C\C=C\[C@H](C)[C@H](O)[C@@H](C)[C@@H](O)[C@@H](C)[C@H](OC(C)=O)[C@@H]1C` [Compound 22], the “MIC (μg/mL) E. coli” value is more than 8 µg/mL.

Turning to `CO[C@H]1/C=C/O[C@@]2(C)Oc3c(C)c(O)c4c(=O)c(c5oc6cc(N7CCC(NC(=O)OCC(C)C)CC7)cc(O)c6nc-5c4c3C2=O)NC(=O)/C(C)=C\C=C\[C@H](C)[C@H](O)[C@@H](C)[C@@H](O)[C@@H](C)[C@H](OC(C)=O)[C@@H]1C` [Compound 13], the “MIC (μg/mL) E. coli” value stood at 4 µg/mL (≈ 4 µM).

In the case of `CO[C@H]1/C=C/O[C@@]2(C)Oc3c(C)c(O)c4c(=O)c(c5oc6cc(N7CCC(N)CC7)cc(O)c6nc-5c4c3C2=O)NC(=O)/C(C)=C\C=C\[C@H](C)[C@H](O)[C@@H](C)[C@@H](O)[C@@H](C)[C@H](OC(C)=O)[C@@H]1C` [Compound 33, 3′-hydroxy-5′-[4-amino-1-piperidinyl]benzoxazinorifamycin], the “MIC (μg/mL) E. coli” value is more than 8 µg/mL.

On to `CCCC(=O)NC1CCN(c2cc(O)c3nc4c5c6c7c(C)c(O)c5c(=O)c(c-4oc3c2)NC(=O)C(C)=CC=CC(C)C(O)C(C)C(O)C(C)C(O)C(C)C(OC)C=COC(C)(O7)C6=O)CC1` (stereo not drawn) [Compound 36, 25-O-deacetyl-3′-hydroxy-5′-[4-butanamide-1-piperidinyl]benzoxazinorifamycin], for which the “MIC (μg/mL) E. coli” value is more than 8 µg/mL.

For the molecule `CO[C@H]1/C=C/O[C@@]2(C)Oc3c(C)c(O)c4c(=O)c(c5oc6cc(N7CCC(N(C)C)CC7)cc(O)c6nc-5c4c3C2=O)NC(=O)/C(C)=C\C=C\[C@H](C)[C@H](O)[C@@H](C)[C@@H](O)[C@@H](C)[C@H](O)[C@@H]1C` [Compound 18, 25-O-deacetyl-3′-hydroxy-5′-(4-N,N dimethylamino-1-piperidinyl)benzoxazinorifamycin], the “MIC (μg/mL) E. coli” value was 4 µg/mL (≈ 4.52 µM).

As for `COCCOC(=O)NC1CCN(c2cc(O)c3nc4c5c6c7c(C)c(O)c5c(=O)c(c-4oc3c2)NC(=O)C(C)=CC=CC(C)C(O)C(C)C(O)C(C)C(O)C(C)C(OC)C=COC(C)(O7)C6=O)CC1` (stereo not drawn) [Compound 63, 25-O-deacetyl-3′-hydroxy-5′-[4-methoxyethylcarbamyl-1-piperidinyl]benzoxazinorifamycin], the “MIC (μg/mL) E. coli” value was 8 µg/mL (≈ 8.34 µM).

Turning to “25-O-deacetyl-5′-[(8aR)octahydropyrrolo[1,2-a]pyrazin-2-yl]benzthiazinorifamycin [Compound 78]”, the “MIC (μg/mL) E. coli” value was found to be 4 µg/mL.

For `CCOC(=O)NC1C2CN(c3cc(O)c4nc5c6c7c8c(C)c(O)c6c(=O)c(c-5oc4c3)NC(=O)C(C)=CC=CC(C)C(O)C(C)C(O)C(C)C(OC(C)=O)C(C)C(OC)C=COC(C)(O8)C7=O)CC21` (stereo not drawn) [Compound 21], the “MIC (μg/mL) E. coli” value is 4 µg/mL (≈ 4.13 µM).

On to `COC1C=COC2(C)Oc3c(C)c(O)c4c(=O)c(c5oc6cc(N7CCC(NC(=O)OC(C)(C)C)CC7)cc(O)c6nc-5c4c3C2=O)NC(=O)C(C)=CC=CC(C)C(O)C(C)C(O)C(C)C(O)C1C` (stereo not drawn) [Compound 52, 25-O-deacetyl-3′-hydroxy-5′-[4-(2,2-dimethylethyl)carbamyl-1-piperidinyl]benzoxazinorifamycin], for which the “MIC (μg/mL) E. coli” value was more than 8 µg/mL.

Consider `CO[C@H]1/C=C/O[C@@]2(C)Oc3c(C)c(O)c4c(=O)c(c5oc6cc(N7C[C@@H]8CCCN[C@@H]8C7)cc(O)c6nc-5c4c3C2=O)NC(=O)/C(C)=C\C=C\[C@H](C)[C@H](O)[C@@H](C)[C@@H](O)[C@@H](C)[C@H](O)[C@@H]1C` [Compound 7, 25-O-deacetyl-3′-hydroxy-5′-[(4aS,7aS)-octahydro-6H-pyrrolo[3,4-b]pyridin-6-yl]benzoxazinorifamycin], for which the “MIC (μg/mL) E. coli” value is more than 8 µg/mL.

Regarding `CCOC(=O)NC1CCN(c2ccc3nc4c5c6c7c(C)c(O)c5c(=O)c(c-4n(C)c3c2)NC(=O)/C(C)=C\C=C\[C@H](C)[C@H](O)[C@@H](C)[C@@H](O)[C@@H](C)[C@H](O)[C@H](C)[C@@H](OC)/C=C/O[C@@](C)(O7)C6=O)CC1` [Compound 31], the “MIC (μg/mL) E. coli” value was 8 µg/mL (≈ 8.64 µM).

Regarding `COC1C=COC2(C)Oc3c(C)c(O)c4c(=O)c(c5oc6cc(N7CC8C(N)C8C7)cc(O)c6nc-5c4c3C2=O)NC(=O)C(C)=CC=CC(C)C(O)C(C)C(O)C(C)C(OC(C)=O)C1C` [Compound 4, 3′-hydroxy-5′-[6-amino-(1R,5S)-3-azabicyclo[3.1.0]hex-3-yl]benzoxazinorifamycin], the “MIC (μg/mL) E. coli” value was more than 8 µg/mL.

On to `CCNC(=O)NC1CCN(c2cc(O)c3nc4c5c6c7c(C)c(O)c5c(=O)c(c-4oc3c2)NC(=O)C(C)=CC=CC(C)C(O)C(C)C(O)C(C)C(O)C(C)C(OC)C=COC(C)(O7)C6=O)CC1` (stereo not drawn) [Compound 37, 25-O-deacetyl-3′-hydroxy-5′-[4-ethyluryl-1-piperidinyl]benzoxazinorifamycin], for which the “MIC (μg/mL) E. coli” value was more than 8 µg/mL.

As for `CCNC(=O)NC1CCN(c2cc(O)c3nc4c5c6c7c(C)c(O)c5c(=O)c(c-4oc3c2)NC(=O)/C(C)=C\C=C\[C@H](C)[C@H](O)[C@@H](C)[C@@H](O)[C@@H](C)[C@H](OC(C)=O)[C@H](C)[C@@H](OC)/C=C/O[C@@](C)(O7)C6=O)CC1` [Compound 34, 3′-hydroxy-5′-[4-ethyluryl-1-piperidinyl]benzoxazinorifamycin], the “MIC (μg/mL) E. coli” value amounted to 8 µg/mL (≈ 8.25 µM).

For `CCCC(=O)NC1CCN(c2cc(O)c3nc4c5c6c7c(C)c(O)c5c(=O)c(c-4oc3c2)NC(=O)/C(C)=C\C=C\[C@H](C)[C@H](O)[C@@H](C)[C@@H](O)[C@@H](C)[C@H](OC(C)=O)[C@H](C)[C@@H](OC)/C=C/O[C@@](C)(O7)C6=O)CC1` [Compound 24, 3′-hydroxy-5′-[4-butanamide-1-piperidinyl]benzoxazinorifamycin], the “MIC (μg/mL) E. coli” value is more than 8 µg/mL.

Take `COC1C=COC2(C)Oc3c(C)c(O)c4c(=O)c(c5oc6cc(N7CCC(C)(NC(C)=O)CC7)cc(O)c6nc-5c4c3C2=O)NC(=O)C(C)=CC=CC(C)C(O)C(C)C(O)C(C)C(O)C1C` (stereo not drawn) [Compound 74, 25-O-deacetyl-3′-hydroxy-5′-[4-methyl-4-acetylamino-1-piperidinyl]benzoxazinorifamycin]: the “MIC (μg/mL) E. coli” value is more than 8 µg/mL.

Take `CO[C@H]1/C=C/O[C@@]2(C)Oc3c(C)c(O)c4c(=O)c(c5oc6cc(N7CCC(N8CCOCC8)CC7)cc(O)c6nc-5c4c3C2=O)NC(=O)/C(C)=C\C=C\[C@H](C)[C@H](O)[C@@H](C)[C@@H](O)[C@@H](C)[C@H](O)[C@@H]1C` [Compound 11, 25-O-deacetyl-3′-hydroxy-5′-(4-morpholinyl-1-piperidinyl)benzoxazinorifamycin]: the “MIC (μg/mL) E. coli” value was 4 µg/mL (≈ 4.31 µM).
